Laboratory results taken from the supplement of paper PMC10307832.

Tests used:
Assay in all cases: relative viability (nuclei count vs DMSO), 5 days (fraction); higher = more cells survive
[1] = tested on: CAL-12T
In short: (§1)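 Lung cancer cell lines, seeded in 1536-well plates, were treated the following day by pin tool with a single drug or with five library-drug doses (not always all listed) in √10 steps on top of a fixed anchor-drug dose. Cells were fixed and nuclei stained in one step after 5 days, and nuclei were counted. Relative viability is the nuclei count for treated wells divided by that for vehicle wells, reported as medians of duplicate plates.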

[2] = tested on: ChaGo-K-1
In short: as §1

[3] = tested on: EMC-BAC-2
In short: as §1

[4] = tested on: HCC-366
In short: as §1

[5] = tested on: HCC-78
In short: as §1

[6] = tested on: HOP-62
In short: as §1

[7] = tested on: LC-2-ad
In short: as §1

[8] = tested on: LK-2
In short: as §1

[9] = tested on: NCI-H1355
In short: as §1

[10] = tested on: NCI-H1734
In short: as §1

[11] = tested on: NCI-H1993
In short: as §1

[12] = tested on: NCI-H2009
In short: as §1

[13] = tested on: NCI-H2085
In short: as §1

[14] = tested on: NCI-H2228
In short: as §1

[15] = tested on: NCI-H2347
In short: as §1

[16] = tested on: NCI-H2405
In short: as §1

[17] = tested on: NCI-H3122
In short: as §1

[18] = tested on: NCI-H596
In short: as §1

[19] = tested on: NCI-H838
In short: as §1

[20] = tested on: PC-14
In short: as §1

[21] = tested on: RERF-LC-KJ
In short: as §1

[22] = tested on: SK-MES-1
In short: as §1

[23] = tested on: SW 1573
In short: as §1

`O=C(O)CCCCC(CCSCc1ccccc1)SCc1ccccc1` (centres undefined) [CPI-613] + O=C(CCCCCCC(=O)Nc1ccccc1)NO [Vorinostat] (partner 1 µM) was tested, and the relative viability ([1]; first compound 5 µM) was 0.674, the relative viability ([1]; first compound 15.81 µM) was 0.545 and the relative viability ([1]; first compound 50 µM) was 0.708. It also gave a relative viability ([1]; first compound 158.11 µM) of 0.0538, a relative viability ([1]; first compound 500 µM) of 0.039 and a relative viability ([2]; first compound 5 µM) of 0.737. For the same molecule, the relative viability ([2]; first compound 15.81 µM) was 0.685, the relative viability ([2]; first compound 50 µM) was 0.744 and the relative viability ([2]; first compound 158.11 µM) was 0.518. The relative viability ([2]; first compound 500 µM) was 0.301, the relative viability ([3]; first compound 5 µM) was 0.499 and the relative viability ([3]; first compound 15.81 µM) was 0.339. The relative viability ([3]; first compound 50 µM) was 0.469, the relative viability ([3]; first compound 158.11 µM) was 0.356 and the relative viability ([3]; first compound 500 µM) was 0.0895. For the same molecule, the relative viability ([4]; first compound 5 µM) was 0.371, the relative viability ([4]; first compound 15.81 µM) was 0.314 and the relative viability ([4]; first compound 50 µM) was 0.291. The relative viability ([4]; first compound 158.11 µM) was 0.0721, the relative viability ([4]; first compound 500 µM) was 0.0058 and the relative viability ([5]; first compound 15.81 µM) was 0.373. The relative viability ([5]; first compound 50 µM) was 0.361, the relative viability ([5]; first compound 158.11 µM) was 0.393 and the relative viability ([5]; first compound 500 µM) was 0.479. For the same molecule, the relative viability ([6]; first compound 5 µM) was 0.531, the relative viability ([6]; first compound 15.81 µM) was 0.49 and the relative viability ([6]; first compound 50 µM) was 0.574. For the same molecule, the relative viability ([6]; first compound 158.11 µM) was 0.285, the relative viability ([6]; first compound 500 µM) was 0.0726 and the relative viability ([7]; first compound 5 µM) was 0.624. The relative viability ([7]; first compound 15.81 µM) was 0.631, the relative viability ([7]; first compound 50 µM) was 0.594 and the relative viability ([7]; first compound 158.11 µM) was 0.0484. For the same molecule, the relative viability ([7]; first compound 500 µM) was 0.0025, the relative viability ([8]; first compound 5 µM) was 0.333 and the relative viability ([8]; first compound 15.81 µM) was 0.278. It also gave a relative viability ([8]; first compound 50 µM) of 0.344, a relative viability ([8]; first compound 158.11 µM) of 0.553 and a relative viability ([8]; first compound 500 µM) of 0.28. It also gave a relative viability ([9]; first compound 5 µM) of 0.568, a relative viability ([9]; first compound 15.81 µM) of 0.547 and a relative viability ([9]; first compound 50 µM) of 0.537. The relative viability ([9]; first compound 158.11 µM) was 0.452, the relative viability ([9]; first compound 500 µM) was 0.0985 and the relative viability ([10]; first compound 5 µM) was 0.66. It also gave a relative viability ([10]; first compound 15.81 µM) of 0.768, a relative viability ([10]; first compound 50 µM) of 0.704 and a relative viability ([10]; first compound 158.11 µM) of 0.147. For the same molecule, the relative viability ([10]; first compound 500 µM) was 0.107, the relative viability ([11]; first compound 5 µM) was 0.569 and the relative viability ([11]; first compound 15.81 µM) was 0.495. It also gave a relative viability ([11]; first compound 50 µM) of 0.61, a relative viability ([11]; first compound 158.11 µM) of 0.404 and a relative viability ([11]; first compound 500 µM) of 0.227. The relative viability ([12]; first compound 5 µM) was 0.726, the relative viability ([12]; first compound 15.81 µM) was 0.672 and the relative viability ([12]; first compound 50 µM) was 0.657. It also gave a relative viability ([12]; first compound 158.11 µM) of 0.152, a relative viability ([12]; first compound 500 µM) of 0.0308 and a relative viability ([13]; first compound 5 µM) of 0.791. It also gave a relative viability ([13]; first compound 15.81 µM) of 0.709, a relative viability ([13]; first compound 50 µM) of 0.657 and a relative viability ([13]; first compound 158.11 µM) of 0.457. The relative viability ([13]; first compound 500 µM) was 0.216, the relative viability ([14]; first compound 5 µM) was 0.776 and the relative viability ([14]; first compound 15.81 µM) was 0.402. It also gave a relative viability ([14]; first compound 50 µM) of 0.559, a relative viability ([14]; first compound 158.11 µM) of 0.229 and a relative viability ([14]; first compound 500 µM) of 0.0377. For the same molecule, the relative viability ([15]; first compound 5 µM) was 0.513, the relative viability ([15]; first compound 15.81 µM) was 0.494 and the relative viability ([15]; first compound 50 µM) was 0.596. For the same molecule, the relative viability ([15]; first compound 158.11 µM) was 0.387, the relative viability ([15]; first compound 500 µM) was 0.235 and the relative viability ([16]; first compound 5 µM) was 1.09. For the same molecule, the relative viability ([16]; first compound 15.81 µM) was 0.79, the relative viability ([16]; first compound 50 µM) was 0.787 and the relative viability ([16]; first compound 158.11 µM) was 0.569. It also gave a relative viability ([16]; first compound 500 µM) of 0.468, a relative viability ([17]; first compound 5 µM) of 0.795 and a relative viability ([17]; first compound 15.81 µM) of 0.89. For the same molecule, the relative viability ([17]; first compound 50 µM) was 0.961, the relative viability ([17]; first compound 158.11 µM) was 0.728 and the relative viability ([17]; first compound 500 µM) was 0.805. For the same molecule, the relative viability ([18]; first compound 5 µM) was 0.471, the relative viability ([18]; first compound 15.81 µM) was 0.621 and the relative viability ([18]; first compound 50 µM) was 0.766. It also gave a relative viability ([18]; first compound 158.11 µM) of 0.3, a relative viability ([18]; first compound 500 µM) of 0.061 and a relative viability ([19]; first compound 5 µM) of 0.675. It also gave a relative viability ([19]; first compound 15.81 µM) of 0.625, a relative viability ([19]; first compound 50 µM) of 0.797 and a relative viability ([19]; first compound 158.11 µM) of 0.3. The relative viability ([19]; first compound 500 µM) was 0.107, the relative viability ([20]; first compound 5 µM) was 0.732 and the relative viability ([20]; first compound 15.81 µM) was 0.612. It also gave a relative viability ([20]; first compound 50 µM) of 0.611, a relative viability ([20]; first compound 158.11 µM) of 0.0514 and a relative viability ([20]; first compound 500 µM) of 0.0074. It also gave a relative viability ([21]; first compound 5 µM) of 0.607, a relative viability ([21]; first compound 15.81 µM) of 0.53 and a relative viability ([21]; first compound 50 µM) of 0.631. It also gave a relative viability ([21]; first compound 158.11 µM) of 0.415, a relative viability ([21]; first compound 500 µM) of 0.344 and a relative viability ([22]; first compound 5 µM) of 1.09. For the same molecule, the relative viability ([22]; first compound 15.81 µM) was 0.921, the relative viability ([22]; first compound 50 µM) was 1.01 and the relative viability ([22]; first compound 158.11 µM) was 0.169. The relative viability ([22]; first compound 500 µM) was 0.0799, the relative viability ([23]; first compound 5 µM) was 0.749 and the relative viability ([23]; first compound 15.81 µM) was 0.635. It also gave a relative viability ([23]; first compound 50 µM) of 0.456, a relative viability ([23]; first compound 158.11 µM) of 0.165 and a relative viability ([23]; first compound 500 µM) of 0.0536.
